Assay results: patent US20060199864A1, “Selection of pH-dependent compounds for in vivo therapy” (priority 2004, published 2006)
Entries after “also recorded” stand apart in the source; their conditions may differ. Where two headings read alike, the source gives them in different places.

Assays:
[1] = Locomotor activity of rats (light beam breaks); conditions: for effects on locomotor activity: monitored 2 hours after injection; for effects on locomotor activity (positive control): varying doses IP
Method: The Locomotor Activity Index is the total number of beam breaks during the trial divided by 1000.
Locomotor activity was monitored after injection for 2 hours.

NR1/NR2A [2] = molecular target: T1, NR1/NR2A (Rattus norvegicus, UniProt P35439+Q00959); conditions: FIG. 4
T1 sequence (Q00959 23-1464, other chains not shown): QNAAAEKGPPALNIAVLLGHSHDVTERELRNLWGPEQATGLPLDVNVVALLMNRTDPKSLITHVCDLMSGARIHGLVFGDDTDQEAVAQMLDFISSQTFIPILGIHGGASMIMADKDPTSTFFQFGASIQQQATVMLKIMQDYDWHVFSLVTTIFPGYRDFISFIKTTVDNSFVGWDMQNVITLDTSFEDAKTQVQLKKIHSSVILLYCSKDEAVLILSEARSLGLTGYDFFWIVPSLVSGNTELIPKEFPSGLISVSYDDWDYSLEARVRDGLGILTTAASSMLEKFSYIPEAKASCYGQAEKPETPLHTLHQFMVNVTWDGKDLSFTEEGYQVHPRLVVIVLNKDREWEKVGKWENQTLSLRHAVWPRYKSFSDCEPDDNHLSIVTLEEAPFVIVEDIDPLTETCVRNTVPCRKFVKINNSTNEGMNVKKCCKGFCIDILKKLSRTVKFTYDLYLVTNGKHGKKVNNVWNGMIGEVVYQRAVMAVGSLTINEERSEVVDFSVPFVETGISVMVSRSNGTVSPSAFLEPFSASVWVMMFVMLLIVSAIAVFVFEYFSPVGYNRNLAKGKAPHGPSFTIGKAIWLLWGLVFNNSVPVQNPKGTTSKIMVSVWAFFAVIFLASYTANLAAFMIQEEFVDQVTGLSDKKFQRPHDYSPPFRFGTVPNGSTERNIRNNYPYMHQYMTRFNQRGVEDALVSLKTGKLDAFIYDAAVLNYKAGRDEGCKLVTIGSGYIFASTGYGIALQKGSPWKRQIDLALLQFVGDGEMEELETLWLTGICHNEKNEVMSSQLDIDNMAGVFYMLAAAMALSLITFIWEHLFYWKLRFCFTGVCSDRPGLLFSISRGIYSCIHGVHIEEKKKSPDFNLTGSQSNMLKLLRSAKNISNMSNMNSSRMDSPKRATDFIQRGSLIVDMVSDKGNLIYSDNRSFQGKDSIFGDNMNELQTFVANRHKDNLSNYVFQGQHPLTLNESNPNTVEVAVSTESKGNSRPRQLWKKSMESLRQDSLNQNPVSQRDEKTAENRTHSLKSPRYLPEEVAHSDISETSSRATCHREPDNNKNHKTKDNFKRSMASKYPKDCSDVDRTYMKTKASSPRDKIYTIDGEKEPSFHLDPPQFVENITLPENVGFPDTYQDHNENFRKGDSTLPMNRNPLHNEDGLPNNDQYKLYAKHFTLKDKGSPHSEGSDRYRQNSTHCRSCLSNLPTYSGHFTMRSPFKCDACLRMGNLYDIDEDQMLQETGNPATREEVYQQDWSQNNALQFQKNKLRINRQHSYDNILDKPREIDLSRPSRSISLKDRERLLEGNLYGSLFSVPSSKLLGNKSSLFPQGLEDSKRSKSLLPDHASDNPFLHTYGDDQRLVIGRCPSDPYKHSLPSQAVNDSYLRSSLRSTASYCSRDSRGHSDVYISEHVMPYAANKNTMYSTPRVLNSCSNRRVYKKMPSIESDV
Method: Stage V and VI oocytes were surgically removed from the ovaries of large, well-fed and healthy Xenopus laevis anesthetized with 3-amino-benzoic acid ethyl ester (1 gm/l). Clusters of oocytes were incubated with 292 U/ml Worthington (Freehold, N.J.) type IV collagenase or 1.3 mg/ml collagenase (Life Technologies, Gaithersburg, Md.; 17018-029) for 2 hr in Ca2+-free solution comprised of (in mM) 115 NaCl, 2.5 KCl, and 10 HEPES, pH 7.5, with slow agitation to remove the follicular cell layer. Oocytes were then washed extensively in the same solution supplemented with 1.8 mM CaCl2 and maintained in Barth's solution comprised of (in mM): 88 NaCl, 1 KCl, 24 NaHCO3, 10 HEPES, 0.82 MgSO4, 0.33 Ca(NO3)2, and 0.91 CaCl2 and supplemented with 100 ug/ml gentamycin, 40 ug/ml streptomycin, and 50 ug/ml penicillin. Oocytes were manually defolliculated and injected within 24 hr of isolation with 5 ng of NR1 subunit and 10 ng of NR2 subunit in a 50 nl volume, and incubated in Barth's solution at 18° C. for 3-7 d. Glass injection pipettes had tip sizes ranging from 10-20 microns, and were backfilled with mineral oil.
These stock solutions were subsequently diluted to the appropriate concentration range in a working solution comprised of 90 mM NaCl, 3 mM KCl, 5 mM HEPES, 0.5 mM BaCl2, 10 uM EDTA, 100 uM glutamate, 50 uM glycine (pH either 6.9 or 7.6 adjusted with NAOH or HCl as appropriate). […]

NR1/NR2A [3] = molecular target: T1, NR1/NR2A; test: NMDA receptor mediated currents, NR1/NR2A; assay type: cell-based; design: expressed in transfected cells; conditions: 3 uM
AMPA receptors = test: Two electrode voltage clamp, Xenopus oocytes injected with AMPA receptor subunits; assay type: cell-based; conditions: 3 uM coadministered with glutamate
Method: (§1) Glutamate or domoate induced current recordings were performed using two electrode voltage clamp, and 3 uM of Compound 93-4 coadministered with agonist (glutamate for AMPA receptors, domoate for kainate receptors).

NR1/NR2D = molecular target: T2, NR1/NR2D (Rattus norvegicus, UniProt P35439+Q62645); test: NMDA receptor mediated currents, NR1/NR2D; assay type: cell-based; conditions: 3 uM
T2 construct: expressed in transfected cells
T2 sequence (Q62645 28-1323, other chains not shown): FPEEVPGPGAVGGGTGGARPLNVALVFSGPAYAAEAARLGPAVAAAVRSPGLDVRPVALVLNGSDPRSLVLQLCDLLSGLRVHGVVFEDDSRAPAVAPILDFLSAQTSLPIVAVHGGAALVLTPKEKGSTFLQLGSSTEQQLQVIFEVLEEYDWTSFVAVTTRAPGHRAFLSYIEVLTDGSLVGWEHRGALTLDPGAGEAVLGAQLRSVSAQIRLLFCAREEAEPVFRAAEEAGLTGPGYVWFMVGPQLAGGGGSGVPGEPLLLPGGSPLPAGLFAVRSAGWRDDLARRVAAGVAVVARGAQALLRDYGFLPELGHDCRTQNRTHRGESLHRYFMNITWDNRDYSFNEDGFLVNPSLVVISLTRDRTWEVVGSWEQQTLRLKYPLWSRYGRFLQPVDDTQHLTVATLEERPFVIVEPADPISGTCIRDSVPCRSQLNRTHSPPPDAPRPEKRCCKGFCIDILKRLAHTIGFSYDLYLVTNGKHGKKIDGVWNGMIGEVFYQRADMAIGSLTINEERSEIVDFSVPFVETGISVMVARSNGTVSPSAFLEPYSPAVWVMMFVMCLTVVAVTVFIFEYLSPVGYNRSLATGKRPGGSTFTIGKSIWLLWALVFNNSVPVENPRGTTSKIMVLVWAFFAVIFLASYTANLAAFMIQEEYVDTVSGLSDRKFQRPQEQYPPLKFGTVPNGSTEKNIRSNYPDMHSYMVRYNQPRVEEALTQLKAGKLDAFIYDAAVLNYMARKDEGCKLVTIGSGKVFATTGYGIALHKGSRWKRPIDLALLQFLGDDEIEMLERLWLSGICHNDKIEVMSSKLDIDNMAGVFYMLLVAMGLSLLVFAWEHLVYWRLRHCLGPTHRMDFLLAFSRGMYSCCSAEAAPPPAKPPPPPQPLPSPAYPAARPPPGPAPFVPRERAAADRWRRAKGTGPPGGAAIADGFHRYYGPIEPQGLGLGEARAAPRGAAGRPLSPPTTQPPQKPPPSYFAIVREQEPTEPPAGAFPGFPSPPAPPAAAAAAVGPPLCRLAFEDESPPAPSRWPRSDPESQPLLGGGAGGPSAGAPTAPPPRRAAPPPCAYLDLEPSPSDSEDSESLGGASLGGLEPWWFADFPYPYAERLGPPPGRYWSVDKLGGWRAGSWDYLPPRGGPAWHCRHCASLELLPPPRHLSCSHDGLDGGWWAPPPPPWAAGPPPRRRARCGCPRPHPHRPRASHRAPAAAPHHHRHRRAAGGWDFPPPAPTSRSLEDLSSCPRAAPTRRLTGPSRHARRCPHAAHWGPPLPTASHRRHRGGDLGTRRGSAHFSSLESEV

NR1/NR2B = molecular target: T3, NR1/NR2B (Rattus norvegicus, UniProt P35439+Q00960); test: NMDA receptor mediated currents, NR1/NR2B; assay type: cell-based; conditions: 3 uM; NR1/NR2B subunits
T3 construct: expressed in transfected cells
T3 sequence (Q00960 27-1482, other chains not shown): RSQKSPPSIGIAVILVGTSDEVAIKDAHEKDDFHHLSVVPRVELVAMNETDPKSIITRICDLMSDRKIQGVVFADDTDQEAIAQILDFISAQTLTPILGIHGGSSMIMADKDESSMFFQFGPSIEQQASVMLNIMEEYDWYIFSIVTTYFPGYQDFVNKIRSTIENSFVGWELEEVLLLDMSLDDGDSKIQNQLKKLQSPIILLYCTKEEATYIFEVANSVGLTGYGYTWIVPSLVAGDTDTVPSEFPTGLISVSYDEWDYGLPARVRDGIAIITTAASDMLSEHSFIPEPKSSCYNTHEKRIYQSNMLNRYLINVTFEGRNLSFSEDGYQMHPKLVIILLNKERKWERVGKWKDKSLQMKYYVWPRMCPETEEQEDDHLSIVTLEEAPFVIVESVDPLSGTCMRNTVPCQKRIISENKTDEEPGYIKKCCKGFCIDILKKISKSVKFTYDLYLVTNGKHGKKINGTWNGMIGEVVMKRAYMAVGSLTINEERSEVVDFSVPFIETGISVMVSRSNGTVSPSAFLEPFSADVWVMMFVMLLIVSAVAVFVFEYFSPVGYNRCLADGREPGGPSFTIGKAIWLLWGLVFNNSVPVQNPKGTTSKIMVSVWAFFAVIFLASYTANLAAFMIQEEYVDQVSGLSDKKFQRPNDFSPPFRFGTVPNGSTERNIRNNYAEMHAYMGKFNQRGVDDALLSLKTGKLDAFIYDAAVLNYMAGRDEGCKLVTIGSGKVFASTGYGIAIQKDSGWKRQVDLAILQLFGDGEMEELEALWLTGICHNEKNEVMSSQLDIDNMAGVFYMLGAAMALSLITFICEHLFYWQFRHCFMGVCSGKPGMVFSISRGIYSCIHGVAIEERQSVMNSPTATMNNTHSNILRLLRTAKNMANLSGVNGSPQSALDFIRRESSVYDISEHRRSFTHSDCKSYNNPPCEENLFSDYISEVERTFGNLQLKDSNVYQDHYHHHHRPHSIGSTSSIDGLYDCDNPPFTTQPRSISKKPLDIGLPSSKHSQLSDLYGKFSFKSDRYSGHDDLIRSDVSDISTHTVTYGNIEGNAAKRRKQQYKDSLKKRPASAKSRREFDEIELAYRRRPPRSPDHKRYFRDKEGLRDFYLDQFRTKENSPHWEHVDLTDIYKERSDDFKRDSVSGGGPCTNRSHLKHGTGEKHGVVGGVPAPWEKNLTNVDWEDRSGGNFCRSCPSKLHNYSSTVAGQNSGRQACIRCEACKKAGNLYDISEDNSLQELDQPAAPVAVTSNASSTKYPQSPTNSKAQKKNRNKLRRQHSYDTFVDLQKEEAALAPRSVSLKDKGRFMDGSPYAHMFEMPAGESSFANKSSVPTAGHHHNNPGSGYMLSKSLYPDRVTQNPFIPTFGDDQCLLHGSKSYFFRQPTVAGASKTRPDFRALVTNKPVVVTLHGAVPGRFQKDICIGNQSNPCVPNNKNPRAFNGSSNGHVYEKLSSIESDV

kainate receptors = test: Two electrode voltage clamp, Xenopus oocytes injected with kainate receptor subunits; assay type: cell-based; conditions: 3 uM coadministered with domoate
Method: as §1

[4] = Side effects observed in the SNL study; assay type: in vivo, Sprague-Dawley rats
Method: (§2) Experimental design: von Frey baseline measurements were made 30 minutes and 24 hours prior to drug administration respectively. Additional von Frey measurements were made at 30, 60, 120 and 240 min. The timeline for testing is summarized below. The experimental groups were: ·vehicle (1% DMSO+66% PEG 400 in distilled water, i.p., 4 ml/kg, n=10)·30 mg/kg Compound 93-31 test (i.p., 4 ml/kg, n=10)·100 mg/kg Compound 93-31 test (i.p., 4 ml/kg, n=10)·30 mg/kg Compound 93-97 test (i.p., 4 ml/kg, n=10)·100 mg/kg Compound 93-97 test (i.p., 4 ml/kg, n=10)·100 mg/kg Gabapentin (i.p., 4 ml/kg, n=12) (Total rats: 62). [drawing 42]
The side effects observed were writhing and stretching (8 observations). These side effects were most commonly seen for the first few minutes (˜5 minutes) following i.p. drug administration. […] Some side effects were observed while measuring the endpoints. The most common was stretching/writhing which may be a sign of some visceral pain or hypersensitivity. […] It seems likely to be associated with i.p. administration of the vehicle in a subset of animals. This seemed relatively rare, short lived (<5 min), and the magnitude was not large enough to interfere with measurement of the endpoint.

[5] = Spinal Nerve Ligation (SNL) model, mechanical allodynia (von Frey); assay type: in vivo, Sprague-Dawley rats; conditions: for Injured paw - von Frey threshold: mean ± SEM
Method: Animals: Male Sprague-Dawley rats (Hsd:Sprague-Dawley®™SD®™, Harlan, Indianapolis, Ind., U.S.A.) weighing 100±10 g on surgery day and 250±10 g on testing day were housed three per cage. Animals had free access to food and water and were maintained on a 12:12 h light/dark schedule. The animal colony was maintained at 21° C. and 60% humidity. All experiments were conducted in accordance with the International Association for the Study of Pain guidelines and were approved by the University of Minnesota Animal Care and Use Committee.
Drugs and dosing solutions: The drugs were dissolved in 1% v/v DMSO and 66% v/v PEG 400 in distilled water. Compounds were administered by i.p. route.
Induction of chronic neuropathic pain: The Spinal Nerve Ligation (SNL) model (Kim and Chung 1992 Pain 50:355-63.) was used to induce chronic neuropathic pain. The animals were anesthetized with isoflurane, the left […] transverse process was removed, and the L5 and L6 spinal nerves were tightly ligated with 6-0 silk suture. The wound was then closed with internal sutures and external staples. Wound clips were removed 10 days following surgery.
Mechanical allodynia testing: Baseline and post-treatment values for non-noxious mechanical sensitivity were evaluated using 8 Semmes-Weinstein filaments (Stoelting, Wood Dale, Ill., USA) with varying stiffness (0.4, 0.7, 1.2, 2.0, 3.6, 5.5, 8.5, and 15 g) according to the up-down method (Chaplan, Bach et al. 1994 J Neurosci Methods 53: 55-63). Animals were placed on a perforated metallic platform and allowed to acclimate to their surroundings for a minimum of 30 minutes before testing. The mean and standard error of the mean (SEM) were determined for each animal in each treatment group. Since this stimulus is normally not considered painful, significant injury-induced increases in responsiveness in this test are interpreted as a measure of mechanical allodynia.
as §2
Data analysis: Statistical analyses were conducted using Prism™ 4.01 (GraphPad, San Diego, Calif., USA). Mechanical allodynia of the injured paw was determined by comparing values observed in the contralateral and ipsilateral paws within the vehicle group. Stability of vehicle group injured paw values over time was tested using the Friedman two-way analysis of variance by rank. Drug effect was analyzed at each time point by carrying out a Kruskal-Wallis one-way analysis of variance by rank followed by a Dunn's post hoc test.
Testing for mechanical allodynia (von Frey) was initiated 14 days after SNL surgery. Tests were performed on both injured (ipsilateral) and normal (contralateral) paws at baseline (30 minutes before drug administration) and 30, 60, 120 and 240 minutes after a single drug administration.

[6] = rats; Dogan et al.; cited from earlier work
[7] = cats; highest dose tested; Gotti et al.; cited from earlier work
[8] = system: primary cultures of rat cerebral cortex; conditions: pH 6.5 vs pH 7.5; Mott et al. 1998; cited from earlier work
[9] = cats and rats; highest dose tested; Gotti et al.; cited from earlier work

For `C[C@@]12N[C@@H](Cc3ccccc31)c1ccccc12` [(−)MK801, reference compound], the “fold less potent than (+)MK801 in causing the induction of locomotor activity” value ([1]; compared to vehicle injected control animals) was “at least 10 fold” and the “mean within the shaded area (criteria for improved drug performance) for NR1/NR2A” value (NR1/NR2A [2]) was “fall within the shaded area”.
In the case of `CS(=O)(=O)Nc1ccc(OC[C@@H](O)CNCCc2ccc(Cl)c(Cl)c2)cc1` [Compound 93-4], the “inhibiting NMDA receptor mediated currents” value (NR1/NR2A [3]) is reported as “not NR1/NR2A”, the “reduction in the agonist induced response” value (AMPA receptors) is reported as “No reduction” and the “inhibiting NMDA receptor mediated currents” value (NR1/NR2D) is reported as “not NR1/NR2A or NR1/NR2D”. For the same compound, the “effects on locomotor activity” value ([1]; 3-300 mg/kg IP) was “no significant effects”, the “inhibiting NMDA receptor mediated currents” value (NR1/NR2B) was “effective at inhibiting” and the “reduction in the agonist induced response” value (kainate receptors) was “No reduction”.
With `CCN(CCc1ccc(Cl)c(Cl)c1)C[C@H](O)COc1ccc(NS(C)(=O)=O)cc1` [Compound 93-5] the “effects on locomotor activity” value ([1]; 3-300 mg/kg IP) was “no significant effects”.
In the case of `CS(=O)(=O)Nc1ccc(OC[C@@H](O)CN(CCO)CCc2ccc(Cl)c(Cl)c2)cc1` [Compound 93-8], the “effects on locomotor activity” value ([1]; 30-300 mg/kg IP) is reported as “no significant effects”.
In the case of `CCCCN(CCc1ccc(Cl)c(Cl)c1)C[C@H](O)COc1ccc(NS(C)(=O)=O)cc1` [Compound 93-31], the “Side Effects: stretching/writhing (animals affected/group)” value (“Side Effects: stretching/writhing” for short) ([4]; 30 mg/kg i.p.) is reported as 0/10 stretching/writhing, the “analgesic effect, injured paw” value ([5]; 30 mg/kg i.p., any time point studied) is reported as “no analgesic effect” and the “Injured paw - von Frey threshold” value ([5]; 30 mg/kg i.p., 30 min) is reported as 1.9 ± 0.3. For the same compound, the “Injured paw - von Frey threshold” value ([5]; 30 mg/kg i.p., 60 min) was 1.7 ± 0.1, the “Injured paw - von Frey threshold” value ([5]; 30 mg/kg i.p., 120 min) was 0.8 ± 0.2 and the “Injured paw - von Frey threshold” value ([5]; 30 mg/kg i.p., 240 min) was 1.1 ± 0.3. For the same compound, the “Injured paw - von Frey threshold” value ([5]; 30 mg/kg i.p., Baseline) was 2.4 ± 0.4, the “analgesia / attenuation of mechanical allodynia, injured paw” value ([5]; 100 mg/kg i.p.) was “observable analgesia at 30 and 60 min; also recorded: appeared to attenuate mechanical allodynia; also recorded: attenuated mechanical allodynia” and the duration of action ([5]; 100 mg/kg i.p.) was 60 min. For the same compound, the onset ([5]; 100 mg/kg i.p.) was 30 min, the “peak threshold relative to the normal paw” value ([5]; 100 mg/kg i.p.) was “approximately half of that seen in the normal paw” and the “Injured paw - von Frey threshold” value ([5]; 100 mg/kg i.p., 30 min) was 9.3 ± 1.5. The “Injured paw - von Frey threshold” value ([5]; 100 mg/kg i.p., 60 min) was 8.9 ± 1.7, the “Injured paw - von Frey threshold” value ([5]; 100 mg/kg i.p., 120 min) was 1.9 ± 0.3 and the “Injured paw - von Frey threshold” value ([5]; 100 mg/kg i.p., 240 min) was 0.8 ± 0.2. For the same compound, the “Injured paw - von Frey threshold” value ([5]; 100 mg/kg i.p., Baseline) was 1.7 ± 0.3, the “effect on von Frey thresholds measured in the normal paw” value ([5]; 30 and 100 mg/kg i.p.) was “no effect on the normal paw” and the ED50 ([5]; Rattus norvegicus, ip, assuming complete reversal may be achieved with higher doses) was about 100 mg/kg. The “effects on locomotor activity” value ([1]; 3-300 mg/kg IP) was “no significant effects” and the “effect on locomotor activity index” value ([1]; IP, doses up to 300 mg/kg, FIG. 5) was “no significant effect”.
For `CS(=O)(=O)Nc1ccc(OC[C@H](O)CN(CCc2ccc(Cl)c(Cl)c2)Cc2ccccc2O)cc1` [Compound 93-40], the “effects on locomotor activity” value ([1]; 30 mg/kg IP) was “no significant effects”.
For `CS(=O)(=O)Nc1ccc(OCC(O)CN(CCc2ccc(Cl)c(Cl)c2)Cc2cccc(O)c2)cc1` (stereo not shown) [Compound 93-41], the “effects on locomotor activity” value ([1]; 30-300 mg/kg IP) was “no significant effects”.
With `CC(C)CN(CCc1ccc(Cl)c(Cl)c1)C[C@H](O)COc1ccc(NS(C)(=O)=O)cc1` [Compound 93-97] the “Side Effects: stretching/writhing” value ([4]; 30 mg/kg i.p.) was 2/10 stretching/writhing (for first 5 min), the “Injured paw - von Frey threshold” value ([5]; 30 mg/kg i.p., 30 min) was 1.6 ± 0.3 and the “Injured paw - von Frey threshold” value ([5]; 30 mg/kg i.p., 60 min) was 1.1 ± 0.1. For the same compound, the “Injured paw - von Frey threshold” value ([5]; 30 mg/kg i.p., 120 min) was 0.9 ± 0.1, the “Injured paw - von Frey threshold” value ([5]; 30 mg/kg i.p., 240 min) was 1.0 ± 0.2 and the “Injured paw - von Frey threshold” value ([5]; 30 mg/kg i.p., Baseline) was 1.9 ± 0.2. For the same compound, the “Injured paw - von Frey threshold” value ([5]; 100 mg/kg i.p., 30 min) was 1.1 ± 0.2, the “Injured paw - von Frey threshold” value ([5]; 100 mg/kg i.p., 60 min) was 1.4 ± 0.3 and the “Injured paw - von Frey threshold” value ([5]; 100 mg/kg i.p., 120 min) was 1.0 ± 0.1. For the same compound, the “Injured paw - von Frey threshold” value ([5]; 100 mg/kg i.p., 240 min) was 0.8 ± 0.2, the “Injured paw - von Frey threshold” value ([5]; 100 mg/kg i.p., Baseline) was 1.2 ± 0.1 and the “effect on von Frey thresholds measured in the normal paw” value ([5]; 30 and 100 mg/kg i.p.) was “no effect on normal paw”. For the same compound, the “analgesic effect / attenuation of mechanical allodynia, injured paw” value ([5]; 30 and 100 mg/kg i.p., any time point studied) was “no analgesic effect; also recorded: failed to attenuate mechanical allodynia”.
With `NCC1(CC(=O)O)CCCCC1` [Gabapentin, reference compound] the “Side Effects: stretching/writhing” value ([4]; 100 mg/kg i.p., for first 5 min) was 1/10 stretching/writhing (for first 5 min), the “Injured paw - von Frey threshold” value ([5]; 100 mg/kg i.p., 30 min) was 6.0 ± 1.1 and the “Injured paw - von Frey threshold” value ([5]; 100 mg/kg i.p., 60 min) was 11.1 ± 1.5. The “Injured paw - von Frey threshold” value ([5]; 100 mg/kg i.p., 120 min) was 13.6 ± 0.9, the “Injured paw - von Frey threshold” value ([5]; 100 mg/kg i.p., 240 min) was 6.6 ± 1.3 and the “Injured paw - von Frey threshold” value ([5]; 100 mg/kg i.p., Baseline) was 1.9 ± 0.2.
In the case of `CC(C(O)c1ccc(O)cc1)N1CCC(Cc2ccccc2)CC1` (stereo not shown) [Ifenprodil], the “decrease in infarct volume” value [6] is given as 22%, the decrease infarct volume [7] is given as 42% and the “pH dependence of potency” value [8] is given as “more potent at lower pH (6.5) than higher pH (7.5)”.
In the case of `OC(CN1CCC(Cc2ccc(F)cc2)CC1)c1ccc(Cl)cc1` (stereo not shown) [SL 82.0715], the “decrease in infarct volume” value [9] is given as 36-48%.
For `CNC1(c2ccccc2Cl)CCCCC1=O` (stereo not shown) [ketamine], the “mean within the shaded area (criteria for improved drug performance) for NR1/NR2A” value (NR1/NR2A [2]) was “fall within the shaded area”.
For (+)MK801 [reference compound], the “effects on locomotor activity (positive control)” value [1] was “stereotypical biphasic effects on locomotor activity” and the “effects on locomotor activity (positive control)” value ([1]; listed as (+)MK-801) was “induced locomotor activity at low doses and ataxia at higher doses”.
